Literature values in patent publication US10190039B2, “Synthetic acid compositions alternatives to conventional acids in the oil and gas industry” (priority 2014, dated 2019).

Settings: death in 2-3 minutes

SMILES: Cl [hydrogen chloride gas, hydrogen chloride]
- Level at which death can occur: 1300-2000 ppm
